12 compounds from patent US10934297B2, “5-heteroaryl substituted indazole-3-carboxamides and preparation and use thereof” (Samumed, LLC, priority 2018, dated 2021) can be followed below.

Test [1] has as its system Wnt activity (Sp5-Luc reporter in SW480 cells). Kind of test: Screening assay for Wnt activity: Sp5-Luc reporter gene assay in SW480 colon carcinoma cells. The format is cell-based, human. The following applies: Homo sapiens, 36 to 48 hours. The source says:
The screening assay for Wnt activity is described as follows. Reporter cell lines can be generated by stably transducing cancer cell lines (e.g., colon cancer) or primary cells (e.g., IEC-6 intestinal cells) with a lentiviral construct that includes a Wnt-responsive promoter driving expression of the firefly luciferase gene.
SW480 colon carcinoma cells were transduced with a lentiviral vector expressing luciferase with a human Sp5 promoter consisting of a sequence of eight TCF/LEF binding sites. SW480 cells stably expressing the Sp5-Luc reporter gene and a hygromycin resistance gene were selected by treatment with 150 μg/mL of hygromycin for 7 days. These stably transduced SW480 cells were expanded in cell culture and used for all further screening activities. […] For Sp5-Luc reporter gene assays, the cells were plated at 4,000 cells/well in 384-well plates with a DMEM medium containing 1% fetal bovine serum, and 1% Penicillin-Streptomycin and incubated for 36 to 48 hours at 37° C. and 5% CO2. Following incubation, 15 μl of BriteLite Plus luminescence reagent (Perkin Elmer) was added to each well of the 384-well assay plates. The plates were placed on an orbital shaker for 2 min and then luminescence was quantified using the Envision (Perkin Elmer) plate reader. Readings were normalized to DMSO only treated cells, and normalized activities were utilized for EC50 calculations using the dose-response log (inhibitor) vs. response-variable slope (four parameters) nonlinear regression feature available in GraphPad Prism 5.0 (or Dotmatics).

For test [2], the target named is DYRK1A kinase (Homo sapiens (Human), UniProt Q13627). Kind of test: DYRK1A kinase assay (Ser/Thr 18 peptide Z-lyte FRET). Format: biochemical. As to conditions: read-out: EC50 (method: IC50). As for the experimental part: Representative compounds were screened using the assay procedure for DYRK1A kinase activity as described below.
This is a non-radioactive assay using fluorescence resonance energy transfer (FRET) between coumarin and fluorescein to detect kinase activity which is represented as a ratio of coumarin emission/fluorescein emission.
The mixture was allowed to incubate with the representative compounds for one hour at room temperature. All reactions were performed in duplicate. Unphosphorylated (“0% Control”) and phosphorylated (“100% control”) forms of Ser/Thr 18 served as control reactions. Additionally, an 11-point dose-response curve of Staurosporine (1 uM top) was run to serve as a positive compound control.
After incubation, Development Reagent A was diluted in Development Buffer then added to the reaction and allowed to further incubate for one hour at room temperature.

Test [3] has as its target GSK3β kinase (Homo sapiens (Human), UniProt P49841). Put plainly: GSK3β kinase assay (Ser/Thr 09 peptide Z-lyte FRET). The format is biochemical. The following applies: read-out: EC50 (method: IC50). The protocol: Representative compounds were screened using the assay procedure for GSK3β kinase activity as described below.
This is a non-radioactive assay using fluorescence resonance energy transfer (FRET) between coumarin and fluorescein to detect kinase activity which is represented as ratio of coumarin emission/fluorescein emission.
The mixture is allowed to incubate with the representative compounds for one hour at room temperature. All reactions were performed in duplicate. Unphosphorylated (“0% Control”) and phosphorylated (“100% control”) forms of Ser/Thr 18 serve as control reactions.
After incubation, diluted Development Buffer is added to the reaction and allowed to further incubate for one hour at room temperature.
Dose-response curves are generated and inhibitory concentration (IC50) values are calculated using non-linear regression curve fit in the Dotmatics' Studies Software (Bishops Stortford, UK).

In test [4] the test system is SW480 colon carcinoma cells. Kind of test: Cell viability assay (CellTiter-Glo) in SW480 colon carcinoma cells. The following applies: Homo sapiens, 96 h, four days. Format: cell-based, human. The protocol: Representative compounds were screened using the assay procedure to assess the effect on cell viability as described below.
SW480 colon carcinoma cells were transduced with a lentiviral vector expressing luciferase with a human Sp5 promoter consisting of a sequence of eight TCF/LEF binding sites. SW480 cells stably expressing the Sp5-Luc reporter gene and a hygromycin resistance gene were selected by treatment with 150 μg/mL of hygromycin for 7 days. These stably transduced SW480 cells were expanded in cell culture and used for all further screening activities.
For the Cell Viability Assays, the cells were plated at 2,000 cells/well in 384-well plates with a DMEM medium containing 1% fetal bovine serum, and 1% Penicillin-Streptomycin and incubated for […] at 37° C. and 5% CO2. Eight replicates of DMSO-treated cells served as controls and cells treated with compound were performed in duplicate.
After incubation, 10 μL of CellTiter-Glo (Promega) was added to each well allowed to incubate for approximately 12 minutes. This reagent “results in cell lysis and generation of a luminescent signal proportional to the amount of ATP present. The amount of ATP is directly proportional to the number of cells present in culture, in agreement with previous reports. The CellTiter-Glo® Assay generates a “glow-type” luminescent signal, produced by the luciferase reaction (Promega.com)”.

Test [5] deals with primary human fibroblasts derived from IPF patients (LL29 cells). Put plainly: Inhibition of the fibrotic process: αSMA staining in TGF-β1 treated LL29 fibroblasts. Format: cell-based. The following applies: Homo sapiens, Fibroblast, 96 h; LL29 cells, TGF-β1 20 ng/mL, 4 days, % αSMA positive cells. As for the experimental part: Representative compounds were screened using primary human fibroblasts (derived from IPF patients) treated with TGF-β1 to determine their ability to inhibit the fibrotic process.
LL29 cells were plated at 1,500 cells/well in 70 μL/well F12 medium supplemented with 1% Fetal Bovine Serum. […] Wells treated with TGF-β1 and containing DMSO were used as positive control, and cells with only DMSO were negative control. […] Following incubation for 4 days, SYTOX green nucleic acid stain (Life Technologies [Thermo Fisher Scientific]) was added to the wells at a final concentration of 1 μM and incubated at room temperature for 30 min.

The subject of test [6] is IL-6. Put plainly: IL-6 inhibition in LPS-stimulated human peripheral blood mononuclear cells (HTRF). The format is cell-based. As to conditions: Homo sapiens, PBMC; for EC50: huPBMCs, LPS 50 ng/mL, 22 hours, IL-6 HTRF. The protocol: Fresh Normal PB MNC (Catalog #PB001, AllCells, Alameda, Calif.) were shipped overnight at 4° C. and resuspended in Roswell Park Memorial Institute (RPMI) 1640 Medium, with GlutaMAX Supplement (Catalog #61870127, ThermoFisher Scientific, Waltham, Mass.) supplemented with 1% Penicillin-Streptomycin (Catalog #15140163. ThermoFisher Scientific, Waltham, Mass.) and 1% fetal bovine serum (FBS) (Catalog #16140089, ThermoFisher Scientific, Waltham, Mass.) assay media. Fresh normal human peripheral blood mononuclear cells (huPBMCs) were resuspended in 1% FBS-RPMI assay media with 1% Penicillin-Streptomycin 1% to a cell concentration of 1×10e6 cells/mL. […] 50 ng/mL of Lipopolysaccharides from Escherichia coli 0111:B4 (Catalog #L5293-2ML, Sigma-Aldrich, St. Louis, Mo.) was added after 2 hours and cells were incubated for another 22 hours at 37° C.-5% CO2. After 22 hour incubation, a mixture of anti-IL6 XL665 and anti-IL-6 Cryptate diluted in reconstitution buffer (Catalog #62IL6PEC, Cisbio Inc., Bedford, Mass.) was added to each well. Following incubation for 3 hours at room temperature, Homogeneous Time-Resolved Fluorescence (HTRF) was measured using the Envision (Perkin Elmer, Shelton, Conn.) at 665 nm and […]. The ratio of fluorescence at 665 nm to 620 nm was used as a readout for IL-6 quantification. All samples were processed in duplicate. Readings were normalized to DMSO treated cells and normalized activities were utilized for EC50 calculations.

Sequence of GSK3β kinase (P49841 whole entry): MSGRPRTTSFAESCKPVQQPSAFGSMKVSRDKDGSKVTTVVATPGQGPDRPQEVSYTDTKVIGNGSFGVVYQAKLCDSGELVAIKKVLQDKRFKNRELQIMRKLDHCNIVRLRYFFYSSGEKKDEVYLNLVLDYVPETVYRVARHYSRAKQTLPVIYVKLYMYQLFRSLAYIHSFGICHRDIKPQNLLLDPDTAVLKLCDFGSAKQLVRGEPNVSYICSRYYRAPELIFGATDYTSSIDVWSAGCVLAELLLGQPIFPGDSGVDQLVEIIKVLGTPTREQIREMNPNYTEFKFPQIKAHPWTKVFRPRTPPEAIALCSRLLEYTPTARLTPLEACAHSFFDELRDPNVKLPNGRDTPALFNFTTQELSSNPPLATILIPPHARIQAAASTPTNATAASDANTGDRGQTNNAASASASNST

In general, EC50 refers to the concentration at which the effect is half-maximal. A lower EC50 goes with greater potency. A word on the IC50: it is the point on the concentration scale where inhibition reaches its midpoint. On to `CC(C)CNC(=O)c1n[nH]c2ccc(-c3cn[nH]c3)cc12` [Compound 1, N-Isobutyl-5-(1H-pyrazol-4-yl)-1H-indazole-3-carboxamide], for which the EC50 in test [1] is 0.358 µM; in test [4] it was 2.58 µM; in test [5], 0.16 µM; in test [6], 1.17 µM. In addition, the IC50 in test [2] stood at 0.03 µM; in test [3] it was 0.028 µM.

Turning to `CC(C)CNC(=O)c1n[nH]c2ccc(-c3cnn(C)c3)cc12` [Compound 2, N-Isobutyl-5-(1-methyl-1H-pyrazol-4-yl)-1H-indazole-3-carboxamide], the EC50 was 0.819 µM in test [1], 5.98 µM in test [4], 0.075 µM in test [5] and 3.01 µM in test [6]. In addition, the IC50 in test [2] came to 0.025 µM; in test [3], 0.011 µM.

For `C[C@@H](NC(=O)c1n[nH]c2ccc(-c3cnn(C)c3)cc12)C(F)(F)F` [Compound 3, (R)-5-(1-Methyl-1H-pyrazol-4-yl)-N-(1,1,1-trifluoropropan-2-yl)-1H-indazole-3-carboxamide], the EC50 in test [1] is more than 10 µM; in test [4] it was 8.95 µM; in test [5], 2.58 µM; in test [6], 9.07 µM. The IC50 in test [2] was 0.134 µM; in test [3], 0.106 µM.

In the case of `C[C@H](NC(=O)c1n[nH]c2ccc(-c3cnn(C)c3)cc12)C(F)(F)F` [Compound 4, (S)-5-(1-Methyl-1H-pyrazol-4-yl)-N-(1,1,1-trifluoropropan-2-yl)-1H-indazole-3-carboxamide], the EC50 turned out to be 3.83 µM in test [1], 2.55 µM in test [4], 0.171 µM in test [5] and 2.89 µM in test [6]. Moreover, the IC50 in test [2] was found to be 0.026 µM; in test [3], 0.024 µM.

For the compound `Cn1cc(-c2ccc3[nH]nc(C(=O)NCCC(F)(F)F)c3c2)cn1` [Compound 5, 5-(1-Methyl-1H-pyrazol-4-yl)-N-(3,3,3-trifluoropropyl)-1H-indazole-3-carboxamide], the EC50 in test [1] turned out to be 0.655 µM; in test [4], 2.52 µM; in test [5], 0.151 µM; in test [6], 2.94 µM. In addition, the IC50 came to 0.025 µM in test [2] and 0.008 µM in test [3].

By inhibition is commonly meant the percentage by which the read-out fell short of the control. For the compound `Cn1cc(-c2cc(F)c3[nH]nc(C(=O)NCCC(F)(F)F)c3c2)cn1` [Compound 6, 7-Fluoro-5-(1-methyl-1H-pyrazol-4-yl)-N-(3,3,3-trifluoropropyl)-1H-indazole-3-carboxamide], the EC50 is 0.325 µM in test [1], 0.737 µM in test [4], 0.148 µM in test [5] and more than 10 µM in test [6]. For the same compound, the IC50 in test [2] was determined as 0.207 µM; in test [3], 0.015 µM. Also, the inhibition at 10 µM in test [6] (read-out: percent inhibition at 10 μM) is 37.8%.

For `CC(C)NC(=O)c1n[nH]c2ccc(-c3cnn(C4CCNCC4)c3)cc12` [Compound 7, N-Isopropyl-5-(1-(piperidin-4-yl)-1H-pyrazol-4-yl)-1H-indazole-3-carboxamide], the EC50 is 2.6 µM in test [1], 5.6 µM in test [4], more than 10 µM in test [5] and 2.01 µM in test [6]. In addition, the IC50 is 0.055 µM in test [2] and 0.255 µM in test [3].

On to `Cn1cc(-c2ccc3[nH]nc(C(=O)NCC4CCC(F)(F)CC4)c3c2)cn1` [Compound 8, N-((4,4-Difluorocyclohexyl)methyl)-5-(1-methyl-1H-pyrazol-4-yl)-1H-indazole-3-carboxamide], for which the EC50 worked out at 0.565 µM in test [1], 0.511 µM in test [4], 0.146 µM in test [5] and 3.36 µM in test [6]. For the same compound, the IC50 is 0.031 µM in test [2] and 0.022 µM in test [3].

For `Cn1cc(-c2ccc3[nH]nc(C(=O)N[C@@H]4CCCC[C@H]4F)c3c2)cn1` [Compound 9, N-((1R,2R)-2-Fluorocyclohexyl)-5-(1-methyl-1H-pyrazol-4-yl)-1H-indazole-3-carboxamide], the EC50 in test [1] came out at 1.98 µM; in test [4], 1.33 µM; in test [5], 0.324 µM; in test [6], 1.09 µM. In addition, the values for the IC50 in test [2] and in test [3] were 0.018 µM and 0.006 µM, respectively.

Regarding `Cn1cc(-c2cc3c(C(=O)N[C@@H]4CCCC[C@H]4F)n[nH]c3cc2F)cn1` [Compound 10, 6-Fluoro-N-((1R,2R)-2-fluorocyclohexyl)-5-(1-methyl-1H-pyrazol-4-yl)-1H-indazole-3-carboxamide], the concentration for a half-maximal effect (EC50) worked out at 3.41 µM in test [1], 1.07 µM in test [4], 0.331 µM in test [5] and 0.903 µM in test [6]. Further, the figures for the IC50 in test [2] and in test [3] were 0.016 µM and 0.009 µM, respectively.

For `Cn1cc(-c2cc(F)c3[nH]nc(C(=O)N[C@@H]4CCCC[C@H]4F)c3c2)cn1` [Compound 11, 7-Fluoro-N-((1R,2R)-2-fluorocyclohexyl)-5-(1-methyl-1H-pyrazol-4-yl)-1H-indazole-3-carboxamide], the EC50 in test [1] was more than 10 µM; in test [4], 1.94 µM; in test [5], more than 10 µM; in test [6] it was 3.32 µM. Further, the IC50 was found to be 0.198 µM in test [2] and 0.02 µM in test [3].

`Cn1cc(-c2cc3c(C(=O)Nc4ccc(CN5CCOCC5)cc4)n[nH]c3cc2F)cn1` [Compound 77, 6-Fluoro-5-(1-methyl-1H-pyrazol-4-yl)-N-(4-(morpholinomethyl)phenyl)-1H-indazole-3-carboxamide]: the values for the EC50 in test [1], in test [4] and in test [5] were 0.411 µM, 2.83 µM and 0.291 µM, respectively. Besides, the IC50 in test [2] was determined as 0.004 µM; in test [3] it was 0.026 µM.
